Data taken from US8969325B2, “TRPV1 antagonists” (AbbVie Inc., priority 2011, dated 2015).

Experiments:
human TRPV1 [1] = target: T1, human TRPV1 (Homo sapiens (Human), UniProt Q8NER1); test: Capsaicin Activation Assay (intracellular Ca2+, FLIPR); type: cell-based; settings: recombinant HEK293 cells expressing hTRPV1, 50 nM capsaicin
Procedure, shortened: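 Ca2+ fluorescence was recorded by FLIPR every 1 to 5 seconds in HEK293 cells, clonally selected for stable human TRPV1 expression and plated one day ahead. Test compounds came as serial dilutions of 10 mM DMSO stocks.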

human TRPV1 [2] = target: T1, human TRPV1; test: Acid Activation Assay (pH 5.0, intracellular Ca2+, FLIPR); type: cell-based; settings: percentage of the maximal pH 5.0-induced response remaining; recombinant HEK293 hTRPV1 cells; maximum concentration tested 37.5 μM
Procedure, shortened: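 Readout: peak [Ca2+]i fluorescence over baseline on FLIPR, expressed as percentage remaining of the maximal pH 5.0-evoked signal. Stable hTRPV1-HEK293 cells with Calcium-4 dye received compound (12 half-log concentrations, maximum 37.5 μM) 3 min before acidic pH 5.0 buffer.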

T1 sequence (Q8NER1 whole entry): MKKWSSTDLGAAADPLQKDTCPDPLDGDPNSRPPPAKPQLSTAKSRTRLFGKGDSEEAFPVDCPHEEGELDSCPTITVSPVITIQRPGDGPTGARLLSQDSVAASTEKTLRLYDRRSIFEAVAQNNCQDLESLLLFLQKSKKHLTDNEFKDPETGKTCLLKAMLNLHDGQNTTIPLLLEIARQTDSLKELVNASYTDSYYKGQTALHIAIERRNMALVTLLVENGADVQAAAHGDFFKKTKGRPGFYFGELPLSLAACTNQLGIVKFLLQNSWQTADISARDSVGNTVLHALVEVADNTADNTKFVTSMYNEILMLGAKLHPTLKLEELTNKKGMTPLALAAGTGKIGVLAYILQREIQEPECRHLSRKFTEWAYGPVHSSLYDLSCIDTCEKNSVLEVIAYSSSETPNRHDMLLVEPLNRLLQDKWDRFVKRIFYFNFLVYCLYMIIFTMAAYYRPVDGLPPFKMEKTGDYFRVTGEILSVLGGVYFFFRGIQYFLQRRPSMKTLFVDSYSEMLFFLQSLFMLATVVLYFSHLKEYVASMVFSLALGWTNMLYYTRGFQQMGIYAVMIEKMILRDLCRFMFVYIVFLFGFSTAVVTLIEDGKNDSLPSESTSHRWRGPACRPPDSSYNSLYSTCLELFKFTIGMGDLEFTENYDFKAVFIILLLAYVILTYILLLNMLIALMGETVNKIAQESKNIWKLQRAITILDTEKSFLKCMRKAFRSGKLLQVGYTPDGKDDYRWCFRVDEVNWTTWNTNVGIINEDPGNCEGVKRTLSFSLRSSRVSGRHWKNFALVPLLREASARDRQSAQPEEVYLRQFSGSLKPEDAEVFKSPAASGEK

Row | Molecule | IC50 (human TRPV1 [1]) [nM] | human TRPV1 H^+ (max % remain) (human TRPV1 [2]) [%]
1 | 1-[(2S,4R)-2-(fluoromethyl)-2-methyl-7-(trifluoromethyl)-3,4-dihydro-2H-chromen-4-yl]-3-(1-methyl-2-oxo-1,2-dihydroquinolin-5-yl)urea [Example 84] | 23 | 40
2 | CCC1(CC)C[C@@H](NC(=O)Nc2ccc3c(c2)N(C)C(=O)CC3)c2ccccc2O1 [Example 260, 1-[(4R)-2,2-diethyl-3,4-dihydro-2H-chromen-4-yl]-3-(1-methyl-2-oxo-1,2,3,4-tetrahydroquinolin-7-yl)urea] | 130 | 61
3 | O=C1CCc2ccc(NC(=O)N[C@@H]3CC4(CCCC4)Oc4ccccc43)cc2N1 [Example 244, 1-[(4R)-3,4-dihydrospiro[chromene-2,1′-cyclopentan]-4-yl]-3-(2-oxo-1,2,3,4-tetrahydroquinolin-7-yl)urea] | 7100 | 41
4 | CCCC1(CCC)C[C@@H](NC(=O)Nc2ccc3c(c2)NC(=O)CO3)c2cc(F)ccc2O1 [Example 107, 1-[(4R)-6-fluoro-2,2-dipropyl-3,4-dihydro-2H-chromen-4-yl]-3-(3-oxo-3,4-dihydro-2H-1,4-benzoxazin-6-yl)urea] | 400 | 113
5 | CN1C(=O)CCc2ccc(NC(=O)N[C@@H]3CCOc4ccccc43)cc21 [Example 258, 1-[(4R)-3,4-dihydro-2H-chromen-4-yl]-3-(1-methyl-2-oxo-1,2,3,4-tetrahydroquinolin-7-yl)urea] | 170 | 72
6 | CCCC1(CCC)C[C@@H](NC(=O)Nc2ccc3c(c2)N(C)C(=O)CC3)c2cc(F)ccc2O1 [Example 266, 1-[(4R)-6-fluoro-2,2-dipropyl-3,4-dihydro-2H-chromen-4-yl]-3-(1-methyl-2-oxo-1,2,3,4-tetrahydroquinolin-7-yl)urea] | 65 | 54
7 | O=C1COc2ccc(NC(=O)N[C@@H]3CCOc4ccc(F)cc43)cc2N1 [Example 118, 1-[(4R)-6-fluoro-3,4-dihydro-2H-chromen-4-yl]-3-(3-oxo-3,4-dihydro-2H-1,4-benzoxazin-6-yl)urea] | > 38000 | 101
8 | CN1Cc2ccc(NC(=O)N[C@@H]3CC(CF)(CF)Oc4cc(OC(F)(F)F)ccc43)cc2NC1=O [Example 183, 1-[(4R)-2,2-bis(fluoromethyl)-7-(trifluoromethoxy)-3,4-dihydro-2H-chromen-4-yl]-3-(3-methyl-2-oxo-1,2,3,4-tetrahydroquinazolin-7-yl)urea] | 120 | 42
9 | CCC1(CC)C[C@@H](NC(=O)Nc2ccc3c(c2)N(C)C(=O)CC3)c2ccc(OC(F)(F)F)cc2O1 [Example 272, 1-[(4R)-2,2-diethyl-7-(trifluoromethoxy)-3,4-dihydro-2H-chromen-4-yl]-3-(1-methyl-2-oxo-1,2,3,4-tetrahydroquinolin-7-yl)urea] | 180 | 101
10 | Cn1c(=O)ccc2c(NC(=O)N[C@H]3CCOc4cc(OC(F)(F)F)ccc43)cccc21 [Example 78, 1-(1-methyl-2-oxo-1,2-dihydroquinolin-5-yl)-3-[(4S)-7-(trifluoromethoxy)-3,4-dihydro-2H-chromen-4-yl]urea] | 91 | 46
11 | CCC1(CC)C[C@@H](NC(=O)Nc2ccc3c(c2)NC(=O)CC3)c2ccc(C(F)(F)F)cc2O1 [Example 224, 1-[(4R)-2,2-diethyl-7-(trifluoromethyl)-3,4-dihydro-2H-chromen-4-yl]-3-(2-oxo-1,2,3,4-tetrahydroquinolin-7-yl)urea] | 35 | 44
12 | CN1Cc2ccc(NC(=O)N[C@H]3CC(C)(C)Oc4ccc(F)cc43)cc2NC1=O [Example 204, 1-[(4S)-6-fluoro-2,2-dimethyl-3,4-dihydro-2H-chromen-4-yl]-3-(3-methyl-2-oxo-1,2,3,4-tetrahydroquinazolin-7-yl)urea] | 1600 | 55
13 | CN1C(=O)CCc2ccc(NC(=O)N[C@@H]3CC(C)(C)Oc4ccc(F)cc43)cc21 [Example 274, 1-[(4R)-6-fluoro-2,2-dimethyl-3,4-dihydro-2H-chromen-4-yl]-3-(1-methyl-2-oxo-1,2,3,4-tetrahydroquinolin-7-yl)urea] | 53 | 81
14 | O=C1CCc2ccc(NC(=O)N[C@@H]3CC(CF)(CF)Oc4c(F)cc(F)cc43)cc2N1 [Example 214, 1-[(4R)-6,8-difluoro-2,2-bis(fluoromethyl)-3,4-dihydro-2H-chromen-4-yl]-3-(2-oxo-1,2,3,4-tetrahydroquinolin-7-yl)urea] | 180 | 40
15 | COCC1(COC)C[C@@H](NC(=O)Nc2ccc3c(c2)NC(=O)N(C)C3)c2cc(F)ccc2O1 [Example 196, 1-[(4R)-6-fluoro-2,2-bis(methoxymethyl)-3,4-dihydro-2H-chromen-4-yl]-3-(3-methyl-2-oxo-1,2,3,4-tetrahydroquinazolin-7-yl)urea] | 2700 | 53
16 | CN1C(=O)NCc2c(NC(=O)N[C@@H]3CC(CF)(CF)Oc4c(F)cc(F)cc43)cccc21 [Example 153, 1-[(4R)-6,8-difluoro-2,2-bis(fluoromethyl)-3,4-dihydro-2H-chromen-4-yl]-3-(1-methyl-2-oxo-1,2,3,4-tetrahydroquinazolin-5-yl)urea] | 170 | 23
17 | Cn1c(=O)ccc2c(NC(=O)N[C@@H]3CC(CF)(CF)Oc4c(F)cccc43)cccc21 [Example 95, 1-[(4R)-8-fluoro-2,2-bis(fluoromethyl)-3,4-dihydro-2H-chromen-4-yl]-3-(1-methyl-2-oxo-1,2-dihydroquinolin-5-yl)urea] | 63 | 54
18 | CCC1(CC)C[C@@H](NC(=O)Nc2ccc3c(c2)NC(=O)N(C)C3)c2ccc(Cl)c(Cl)c2O1 [Example 182, 1-[(4R)-7,8-dichloro-2,2-diethyl-3,4-dihydro-2H-chromen-4-yl]-3-(3-methyl-2-oxo-1,2,3,4-tetrahydroquinazolin-7-yl)urea] | 380 | 29
19 | O=C1CCc2ccc(NC(=O)N[C@@H]3CCOc4cc(C(F)(F)F)ccc43)cc2N1 [Example 239, 1-(2-oxo-1,2,3,4-tetrahydroquinolin-7-yl)-3-[(4R)-7-(trifluoromethyl)-3,4-dihydro-2H-chromen-4-yl]urea] | 47 | 26
20 | CN1Cc2ccc(NC(=O)N[C@@H]3CC(C)(C)Oc4nc(C(F)(F)F)ccc43)cc2NC1=O [Example 208, 1-[(4R)-2,2-dimethyl-7-(trifluoromethyl)-3,4-dihydro-2H-pyrano[2,3-b]pyridin-4-yl]-3-(3-methyl-2-oxo-1,2,3,4-tetrahydroquinazolin-7-yl)urea] | 1300 | 55
21 | CCC1(CC)C[C@@H](NC(=O)Nc2ccc3c(c2)NC(=O)N(C)C3)c2cc(F)ccc2O1 [Example 189, 1-[(4R)-2,2-diethyl-6-fluoro-3,4-dihydro-2H-chromen-4-yl]-3-(3-methyl-2-oxo-1,2,3,4-tetrahydroquinazolin-7-yl)urea] | 200 | 40
